This note sets out measurements from patent publication US6211215A, “Heterocyclic compounds, their production and use” (Takeda Chemical Industries, Ltd., priority 1996, dated 2001).

Experiment [1] relates to MDA-MB-453. Description: Selective in vitro inhibition of breast cancer cell growth. It is filed as cell-based. As to conditions: Homo sapiens, 72 h; Mammary cancer MDA-MB-453; 3 days; SRB; read-out: IC50, inhibition of cell proliferation. How it is done:
(§1) 100 μl (containing 2,000 cells) of a cell suspension of various human breast cancer cell lines shown in [Table 6] was seeded in each well of the 96-well microtiter plates. The cells were incubated at 37° C. in a 5% carbon dioxide gas incubator. Next day, 100 μl of a 2 fold serial dilution of a compound solution was added to each well. The cultures were incubated for 3 days. The solution containing the compound was removed and the cells were washed with water. To the cells was added a 0.4% (V/W) dye SRB (dissolved in 1% acetic acid) solution to fix and stain the cell protein. The dye solution was removed and the fixed and stained cell protein was washed. The protein-bound dye was extracted with 200 μl of 10 mM Tris buffer. The optical density of the extracted dye was determined at the wavelength of 540 nm to estimate the quantity of the cells in terms of the protein quantity. Designating the protein quantity in the control to which no compound solution was added as 100%, the proportion of the residual protein quantity in each treated group was calculated, and IC50, which was the concentration of the compound required to inhibit the residual protein quantity to 50% the quantity of the control, was calculated.

In experiment [2] the test system is T-47D. The description is as above. The experiment is classed as cell-based. To be noted: Homo sapiens, T47D, 72 h; Mammary cancer T-47D; 3 days; SRB; read-out: IC50, inhibition of cell proliferation. How it is done:
as §1

The subject of experiment [3] is MRC5. The experiment is described as above. The experiment is classed as cell-based. To be noted: Homo sapiens, 72 h; Normal MRC5; 3 days; SRB; read-out: IC50, inhibition of cell proliferation. How it is done:
as §1

Experiment [4] has as its system BT-20. The experiment is described as above. The experiment is classed as cell-based. To be noted: Homo sapiens, 72 h; Mammary cancer BT-20; 3 days; SRB; read-out: IC50, inhibition of cell proliferation. How it is done: as §1
The subject of experiment [5] is BT-474. Described as above. It is filed as cell-based. As to conditions: Homo sapiens, 72 h; Mammary cancer BT-474; 3 days; SRB; read-out: IC50, inhibition of cell proliferation. How it is done: as §1
The subject of experiment [6] is HSC-1. Described as above. The experiment is classed as cell-based. To be noted: Homo sapiens, 72 h; Epidermal cancer HSC-1; 3 days; SRB; read-out: IC50, inhibition of cell proliferation. How it is done:
as §1

Experiment [7] concerns MDA-MB-468. The description is as above. To be noted: Homo sapiens, 72 h; Mammary cancer MDA-MB-468; 3 days; SRB; read-out: IC50, inhibition of cell proliferation. The experiment is classed as cell-based. How it is done: as §1
Experiment [8] deals with SKBR3. The experiment is described as above. The experiment is classed as cell-based. To be noted: Homo sapiens, SK-BR-3, 72 h; Mammary cancer SKBR3; 3 days; SRB; read-out: IC50, inhibition of cell proliferation. How it is done:
as §1

In experiment [9] the test system is human breast cancer cell line, MDA-MB-453. The experiment is described as follows: In vivo mammary cancer inhibiting effect (1). As to conditions: for Tumor growth rate (%): oral, tumor volume vs control. On the set-up: species or system female Balb/C strain athymic nude mice. How it is done: 5,000,000 cells of human breast cancer cell line, MDA-MB-453, were suspended in a gelmatrix solution. The suspension was subcutaneously implanted at the breast in 7-week-old female Balb/C strain athymic nude mice (Friedman R. et al., Proceedings of the National Academy of Sciences of the U.S.A. Vol. 87, pp.6698-6702, 1990). Twelve days after the implantation, the diameters of tumors were determined. For the experiment were used 5 mice per group with similar tumor size. Compound 8 of the present invention was suspended in a 5% gum arabic solution (physiologicalsaline) and administered orally twice daily in dose of 30 mg/kg body weight for 10 days, or 2 cycle oral administrations consisting of 45 mg/kg body weight twice daily for 3 days and no treatment for 3 days were performed. On the day when the dosing was ended, the diameters of tumors were measured. Tumor volume was calculated by the following formula: volume of tumor=longest diameter×shortest diameter×shortest diameter×1/2. The growth rate of tumors was obtained as the proportion to the volume of tumor in the control animals in which only the gum arabic solution was administered. The body weights of mice administered with Compound 8 of the present invention were measured during the experiment to observe no decrease.

The subject of experiment [10] is MDA-MB-453. Description: In vitro inhibition of cell proliferation (1). The experiment is classed as cell-based. To be noted: Homo sapiens, 72 h; Breast cancer MDA-MB-453; 3 days; SRB. How it is done:
100 μl (containing 2,000 cells) of a cell suspension of human breast cancer cell line MDA-MB-453 was seeded in each well of the 96-well microtiter plates. The cultures were incubated at 37° C. in a 5% carbon dioxide gas incubator. On the next day, 100 μl of the 2-fold serial dilution of each compound solution was added to each well and the mixtures were cultured for 3 days. The solution containing the compound was removed and the cells were washed with water. To the cells was added a 0.4% (W/V) dye SRB (dissolved in 1% acetic acid) solution to fix and stain the cell protein (Skehan P. et al., Journal of the National Cancer Institute Vol.82, pp.1107-1112, 1990). The dye solution was removed and the fixed and stained cell protein was washed. The protein-bound dye was extracted with 200 μl of 10 mM Tris buffer. The optical density of the extracted dye was determined at the wavelength of 540 nm to estimate the quantity of the cells in terms of the protein quantity. Designating the protein quantity in the control to which no compound solution was added as 100%, the proportion of the residual protein quantity in each treated group was calculated, and IC50, which was concentration of the compound required to inhibit the residual protein quantity to 50% the quantity of the control, was calculated.

The target in experiment [11] is HER2 (Homo sapiens, UniProt P04626). The experiment is described as follows: Inhibition of the activity of human growth factor receptor (HER2) tyrosine kinase. The experiment is classed as biochemical. On the set-up: the tyrosine kinase domain of the human HER2 gene was cloned; made in house; host or cells: insect cell line SF-21 (recombinant insect virus vector). As to conditions: HER2 receptor type tyrosine kinase; ELISA with HER3 substrate; read-out: Concentration of inhibiting HER2 (IC50). An excerpt: As enzyme standard, the tyrosine kinase domain of the human HER2 gene was cloned to prepare the recombinant gene of insect virus vector, with which the insect cell line SF-21 was infected to produce an enzyme protein (Guy P. M. et al., Journal of Biological Chemistry Vol. 267, pp.13851-13856, 1992). As substrate, the phosphorylated tyrosine domain of the HER3 protein was cloned to prepare the recombinant gene of plasmid vector with which Escherichia Coli strain JM109 was infected to give an enzyme protein (Sierke S. L. et al., Biochemistry Vol. 32, pp.10102-10108, 1993). The enzymatic reaction was performed by the enzyme-linked immunological method which consisted of fixing the substrate protein in wells of a 96-well microtiter plate, adding the enzyme into the wells and quantitating phosphorylated tyrosine, which was the reaction product, by use of the anti-phosphorylated tyrosine antibody (Cleaveland J. S. et al., Analytical Biochemistry Vol. 190, pp249-253, 1990).
(ELISA stands for enzyme-linked immunosorbent assay.)

HER2, sequence (P04626 720-987 limits assumed): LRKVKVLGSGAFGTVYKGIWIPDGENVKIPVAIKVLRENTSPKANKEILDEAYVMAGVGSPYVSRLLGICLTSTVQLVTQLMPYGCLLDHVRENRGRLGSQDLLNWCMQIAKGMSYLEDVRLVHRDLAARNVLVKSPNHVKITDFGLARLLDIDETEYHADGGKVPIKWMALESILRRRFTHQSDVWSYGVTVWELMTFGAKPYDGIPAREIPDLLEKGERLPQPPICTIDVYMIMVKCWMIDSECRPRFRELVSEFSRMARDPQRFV

On to `C(=C\c1nc(COc2ccc(CCCn3ccnc3)cc2)co1)/c1ccccc1` [Compound 8, 4-[4-[3-(1-imidazolyl)propyl]phenoxymethyl]-2-[(E)-2-phenylethenyl]oxazole], for which the IC50 in experiment [1] worked out at 250 nM; in experiment [2] it was 570 nM; in [3], 15000 nM; in experiment [4] it was 520 nM; in [5] it was 290 nM; in experiment [6] it was 2100 nM. Moreover, the IC50 in [7] was found to be 520 nM; in experiment [8] it was 1000 nM; in experiment [10], 250 nM; in [11], 20000 nM. The “Tumor growth rate (%)” value in experiment [9] (60 mg/kg/day, 30 mg/kg twice daily for 10 days) was 71%; in experiment [9] (90 mg/kg/day, 2 cycles of 45 mg/kg twice daily 3 days and 3 days off) it was 46%. Also, the “Inhibition of implanted tumor growth” value in experiment [9] (MDA-MB-453, athymic nude mice) is reported as “inhibited dose-dependently the growth of human breast cancer”.
